Marks after values point to notes of the source that are not given here.

One assay concerns dislipidemic hamster. In words: Antidyslipidemic activity in dislipidemic (high fat diet) hamster model.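 Note: male golden Syrian hamsters on high fat diet for 10 days, oral treatment days 4–10, non-fasted plasma sampled on day 10, compared with vehicle-treated high fat diet controls.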
Assay [1] has as its system sucrose challenged Streptozotocin induced diabetic rats. In words: STZ-s model, sucrose challenged low dosed Streptozotocin induced diabetic rats. The following applies: for STZ-s model % change 5 h / STZ-s model % change 24 h: dose 25 mg/kg. It counts as in vivo, Male albino rats of Sprague Dawley strain. How it is done: [formula] […] [B] (ii) STZ-s Procedure
Male albino rats of Sprague Dawley strain of the body weight 160±20 g were selected for this study. Streptozotocin (Sigma, USA) was dissolved in 100 mM citrate buffer pH 4.5 and calculated amount of the fresh solution was injected to overnight fasted rats (45 mg./Kg.) intraperitonially. Blood was checked 48 hours later by glucosetrips and animals showing blood glucose values between 144 to 270 mg./dl. (8 to 15 mM) were included in the experiments and termed diabetic. The diabetic animals were divided into groups comprising 5 to 6 animals in each group. […] The animals of the control group were given an equal amount of 1.0% gum acacia. A sucrose load of the 2.5 g/Kg of the body weight was given after 30 minutes of the drug administration. After 30 minutes of the post sucrose load blood glucose level was again checked by glucostrips at 30, 60, 90, 120, 180, 240, 300 minutes and 24 hours respectively. […] The food but not the water was withheld from the cages during the experimentation. Comparing the AUC of experimental and control groups determined the percent of antihyperglycemic activity. Statistical comparison between groups was made by the Student's “t” test.

Assay [2] concerns db/db mice. As to the kind of experiment: Anti-dislipidemic activity (lipid profile) in db/db mice. It counts as in vivo, C57BL/KsBom-db mice. As to conditions: dose 10 mg/Kg. The text has this: The db/db mouse is a well-characterized model of type-2 diabetes. The background for the db/db mouse is the C57BL/Ks strain. The major deficiency of the C57BL.Ks Bom-db mouse (db/db) is lack of a functional leptin receptor. This leads to defective leptin signaling and a complete lack of feedback from leptin. […] The db/db mouse develops NIDDM from around week 10. The disease is stable until week 20, where destruction of pancreatic β-cells can be recognized clinically as decreasing levels of plasma insulin and very severe […]. The db/db mouse has a maximal life span of 9-12 months. The advantage of using male mice for experimental purposes is that the fluctuations in plasma parameters are less than in females where the oestrogens cycle affects the clinical diabetes. The optimal age of db/db mice used for experiments will be from week-12 to 18 when they have developed NIDDM with diabetic dyslipidemia but still have functional β-cells in the pancreas. C57BL/KsBom-db mice 12-18 weeks, 40-50 g bred in the animal house of CDRI, Lucknow. 10 mice were housed in groups of (5 males and 5 females) were housed in groups of 5 individuals (same sex) in a room controlled for temperature (23±2.0° C.) and 12/12 hours light/dark cycle (light on 6.00AM.). Body weight was measured daily from day 1 to day 10. All animals had free access to fresh water and to normal chow except on the days of the post prandial protocol day 6 and during the overnight fast before the OGTT on day 10. The animals always had access to water during experimental periods. Blood glucose was checked every morning up till day 5. On day 6 post prandial protocol was employed, in this method blood glucose was checked at −0.5 h and 0 h. […] Blood glucose was measured at 0.0 min. post treatment, at this juncture glucose solution was given at a dose of 3 g./Kg. to all the groups including vehicle; the profile of blood glucose was checked at 30, 60, 90 and 120 minutes post glucose administration.

Assay [3] relates to db/db mice. In words: db/db mice antihyperglycemic activity (day 6 post prandial, day 10 OGTT). It is filed as in vivo, C57BL/KsBom-db mice. The text has this: The db/db mouse is a well-characterized model of type-2 diabetes. The background for the db/db mouse is the C57BL/Ks strain. The major deficiency of the C57BL.Ks Bom-db mouse (db/db) is lack of a functional leptin receptor. This leads to defective leptin signaling and a complete lack of feedback from leptin. […] The db/db mouse develops NIDDM from around week 10. The disease is stable until week 20, where destruction of pancreatic β-cells can be recognized clinically as decreasing levels of plasma insulin and very severe […]. The db/db mouse has a maximal life span of 9-12 months. The advantage of using male mice for experimental purposes is that the fluctuations in plasma parameters are less than in females where the oestrogens cycle affects the clinical diabetes. The optimal age of db/db mice used for experiments will be from week-12 to 18 when they have developed NIDDM with diabetic dyslipidemia but still have functional β-cells in the pancreas. C57BL/KsBom-db mice 12-18 weeks, 40-50 g bred in the animal house of CDRI, Lucknow. 10 mice were housed in groups of (5 males and 5 females) were housed in groups of 5 individuals (same sex) in a room controlled for temperature (23±2.0° C.) and 12/12 hours light/dark cycle (light on 6.00AM.). Body weight was measured daily from day 1 to day 10. All animals had free access to fresh water and to normal chow except on the days of the post prandial protocol day 6 and during the overnight fast before the OGTT on day 10. The animals always had access to water during experimental periods. Blood glucose was checked every morning up till day 5. On day 6 post prandial protocol was employed, in this method blood glucose was checked at −0.5 h and 0 h. The test samples were given to the treatment group whereas vehicle received the only gum acacia (1.0%); the blood glucose was again checked at 1, 2, 3, 4 and 6 h posttest drug treatment. On day 8, blood was collected for serum insulin and lipid profile measurements and finally on day 10 an oral glucose tolerance test (OGTT) was performed after an overnight fasting. Blood glucose was measured at 0.0 min. post treatment, at this juncture glucose solution was given at a dose of 3 g./Kg. to all the groups including vehicle; the profile of blood glucose was checked at 30, 60, 90 and 120 minutes post glucose administration.
Table-5-a represents the antihyperglycemic activity profile of 50% Aq.-EtOH extract and chloroform soluble fraction of the aq.-ethanolic extract and the standard drug Roziglitazone in hyperglycemic and hyperinsulinemic db/db mice. The results of the antidiabetic evaluations of the epicarp extracts/fractions/compounds in GLM and STZ models are given in table-1

In another assay the test system is STZ injected rats. As to the kind of experiment: STZ model, antihyperglycemic activity. It is filed as in vivo, Sprague-Dauley [SD] strain male albino rats. The following applies: dose 100 mg/kg. As for the experimental part: Drug metformate was administered half an hour before glucose was given. […] Statistical significance was done by AUC-method. [B] (i) STZ-Model Procedure Sprague-Dauley [SD] strain male albino rats of body weight 160±20 g were taken for study. Animals in 3 cage were kept for 7 days under standard experimental conditions before the experiment. Animals were given standard rat-pellet diet and tap-water ad-libitum. Day ‘0’-Day before experiment, animals were kept for overnight starvation. […] USA] was injected intraperitoneally to all the starved animals at a dose of 60 mg/kg, dissolved in 100 m M citrate buffer, pH 4.5. Day ‘2’ rats remained as such in the same conditions. Food pellets were removed on the penultimate day at 5:00 P.M. in the evening and animals were kept on over night starvation. […] Blood was taken from tail of the rats by stab-techniques and the glucose level was estimated using “Advantage Glucometer” of Boehringer Mannheim Co, USA. […] Group-I was kept only for control [STZ-injection were given only]. Group II were treated with STZ+test samples. […] [formula] The extract/fraction/compounds found active were statistically analyzed to determine area under curve [AUC] by plotting the blood-glucose values against time. [B] (ii) STZ-s Procedure

Protocol for dislipidemic hamster: Test Models used for the Evaluation of the Antidyslipidemic Activity:
Male golden Syrian Hamsters weighing 120-130 g were divided into dyslipidemic and dislipidemic plus drug treated groups of the eight animals in each groups were used. Feeding with high fat diet (supplied by NOVO—NORDISK, Dennmark, Cat produced Dyslipidemia. No-99122211). Dislipidemic hamsters had free access to HFD and water ad-libitum. throughout the experiment for ten days. The test sample was fed orally at a dose of 250 mg./kg. from day-4 to day-10 (7 days) in the HFD hamsters. Normal hamsters fed with HFD and given drug vehicle only, served as control animals. Body weight of each animal and diet intake of each animal group was recorded daily to check the effect of the drug on food intake and body weight of the animals. At the end of the experiment i.e. on day 10th, the blood of non fasted animals were withdrawn in two sets of tubes in which one set contains 120 μl NaF (4.5 mg./ml) and after 15 min. in cold, plasma was separated. Biochemical analysis of plasma with out NaF was performed on the same day for Triglycerides (TG) total Cholesterol (TC) HDL-Cholesterol using enzymatic diagnostic kits. Similarly the plasma containing NaF Glucose was assayed for glucose, glycerol and free Fatty acids (FFA) on Synchron CX-5. Clinical System Beckmann Coulter Instrument.

`CC[C@H](CC[C@@H](C)[C@H]1CC[C@H]2[C@@H]3CC=C4C[C@@H](O)CC[C@]4(C)[C@H]3CC[C@]12C)C(C)C` [β-Sitosterol]: in the assay on dislipidemic hamster (dose 25 mg/kg), the “FFA (Free Fatty Acid)” value is −38*** %, the “GLY (Glycerol)” value is listed as −14%, the “H/C (High density lipoprotein/cholesterol ratio)” value is given as −7% and the “HDL (High Density Lipoprotein)” value is −5%. Also, the “TG (Triglycerides)” value with dislipidemic hamster (dose 25 mg/kg) was −7%. Also, the “STZ-s model % change 5 h” value in assay [1] (5 h) is recorded as “Nil”. Also, the “STZ-s model % change 24 h” value in assay [1] (24 h) was “Nil”.
In the case of Xyloccensin-I, in the assay with dislipidemic hamster (dose 25 mg/kg), the “FFA (Free Fatty Acid)” value is −17%, the “GLY (Glycerol)” value is recorded as −5%, the “H/C (High density lipoprotein/cholesterol ratio)” value is on record as −7% and the “HDL (High Density Lipoprotein)” value was −5%. Also, the “STZ-s model % change 5 h” value in assay [1] (5 h) is reported as “Nil”. In assay [1] (24 h), the “STZ-s model % change 24 h” value is on record as “Nil”.
Consider `CCCCCCCCCCCCCCCC(=O)O` [Palmitic acid], for which the “% Activity in STZ-s model” value in assay [1] (dose 100 mg/Kg) was −5.6%.
Take `CC(C)OC(=O)C(C)(C)Oc1ccc(C(=O)c2ccc(Cl)cc2)cc1` [Fenofibrate, reference compound]: in the assay with dislipidemic hamster (dose 108.24 mg/kg (300 μmole)), the “CHOL (Cholesterol)” value was −18* %, the “FFA (Free Fatty Acid)” value is listed as −20* %, the “GLU (Glucose)” value is on record as −22% and the “GLY (Glycerol)” value is on record as −36** %. In the assay on dislipidemic hamster (dose 108.24 mg/kg (300 μmole)), the “H/C (High density lipoprotein/cholesterol ratio)” value is on record as “+10%” and the “TG (Triglycerides)” value is given as −42* %.
For Photogedunin, the “% Activity in STZ-s model” value in assay [1] (dose 100 mg/Kg) is listed as “+30.5%”.
Turning to `CN(CCOc1ccc(CC2SC(=O)NC2=O)cc1)c1ccccn1` (stereo not shown) [Roziglitazone], in the assay on db/db mice [2], the “Anti-dislipidemic activity CHOL” value was −5.5, the “Anti-dislipidemic activity HDL-C” value is on record as “+7.14” and the “Anti-dislipidemic activity TG” value is −16.0. Also, the “antidiabetic effect in db/db mice” value with db/db mice [3] (10 mg/Kg) is “same order of activities”. Further, in the assay with db/db mice [3] (dose 3.0 mg/Kg, Day 6), the “% Antihyperglycemic activity Day 6” value is recorded as 6.24* %. Further, the “% Antihyperglycemic activity Day 10” value with db/db mice [3] (dose 3.0 mg/Kg, Day 10) is on record as 48.5* ** %. Besides, the “Antihyperglycemic activity Day 6” value in the assay with db/db mice [3] (dose 10 mg/Kg, Day 6) is on record as −13.8 **. Moreover, the “Antihyperglycemic activity Day 10” value with db/db mice [3] (dose 10 mg/Kg, Day 10) is recorded as −27.4 ***.
`CC(=O)O[C@@H]1C[C@H]2C(C)(C)C(=O)C=C[C@]2(C)[C@H]2CC[C@@]3(C)[C@H](c4ccoc4)OC(=O)[C@H]4O[C@]43[C@@]21C` [Gedunin]: in the assay on dislipidemic hamster (dose 25 mg/kg), the “CHOL (Cholesterol)” value was “+14%”, the “FFA (Free Fatty Acid)” value is −36*** %, the “GLU (Glucose)” value is listed as −28*** % and the “GLY (Glycerol)” value is given as −22%. For the same compound, in the assay on dislipidemic hamster (dose 25 mg/kg), the “H/C (High density lipoprotein/cholesterol ratio)” value was “+11%”, the “HDL (High Density Lipoprotein)” value is given as “+27* %” and the “TG (Triglycerides)” value is given as −47*** %. For the same compound, in the assay with dislipidemic hamster (hamster, in vivo), the “activity in antidislipidemic hamster model” value is on record as “active”. The “In STZ model % lowering” value with STZ injected rats is 10.5%. The “In STZ model % lowering” value with STZ injected rats (listed as gedunin) was “promising activity”. Moreover, the “activity in STZ-s model” value in assay [1] (rat, in vivo) was “active”.
Regarding `CC[C@H](CC[C@@H](C)[C@H]1CC[C@H]2[C@@H]3CC=C4C[C@@H](O[C@@H]5O[C@H](CO)[C@@H](O)[C@H](O)[C@H]5O)CC[C@]4(C)[C@H]3CC[C@]12C)C(C)C` [β-Sitosterol-β-D-glucoside], the “% Activity in STZ-s model” value in assay [1] (dose 100 mg/Kg) was “+10.1%”.
Xyloccensin-E: in the assay on dislipidemic hamster (dose 10 mg/kg), the “CHOL (Cholesterol)” value is reported as −18%, the “FFA (Free Fatty Acid)” value is −43* %, the “H/C (High density lipoprotein/cholesterol ratio)” value is given as −10% and the “HDL (High Density Lipoprotein)” value is recorded as −25%. Moreover, the “TG (Triglycerides)” value with dislipidemic hamster (dose 10 mg/kg) was −22%. Besides, in assay [1] (5 h), the “STZ-s model % change 5 h” value is −6.91%. For the same compound, the “STZ-s model % change 24 h” value in assay [1] (24 h) is reported as −0.34%.
Consider `CN(C)C(=N)N=C(N)N` [Metformin, reference compound], for which the “STZ-s model % change 5 h” value in assay [1] (5 h) is on record as −23.6** %. Also, in assay [1] (24 h), the “STZ-s model % change 24 h” value is given as −26.5** %. Besides, in assay [1] (dose 100 mg/Kg, 5 h), the “% Antihyperglycemic activity 5 h” value was 23.6* ** %. The “% Antihyperglycemic activity 24 h” value in assay [1] (dose 100 mg/Kg, 24 h) is given as 26.5* * * %.

Source of the values: US7959954B2, “Pharmaceutical composition for treatment of diabetes and dyslipidemia” (Council of Scientific and Industrial Research, priority 2005, dated 2011).
